Experimental data published in ChEMBL document CHEMBL5543145, “Discovery of the First-in-Class G9a/GLP PROTAC Degrader” (J Med Chem, 2024).
The source made the active and inactive calls. The calls are words filed in the database; no cut-off is given here.

Experiments:
[1] = target: T1, von Hippel-Lindau disease tumor suppressor/Histone-lysine N-methyltransferase EHMT1 (Homo sapiens, UniProt Q9H9B1+P40337); experiment: PROTAC activity at GLP/VHL in human 22Rv1 cells assessed as induction of GLP degradation at 3 uM incubated for 24 hrs by Western blot analysis relative to control; type: cell-based
T1 sequence (P40337 whole entry partner): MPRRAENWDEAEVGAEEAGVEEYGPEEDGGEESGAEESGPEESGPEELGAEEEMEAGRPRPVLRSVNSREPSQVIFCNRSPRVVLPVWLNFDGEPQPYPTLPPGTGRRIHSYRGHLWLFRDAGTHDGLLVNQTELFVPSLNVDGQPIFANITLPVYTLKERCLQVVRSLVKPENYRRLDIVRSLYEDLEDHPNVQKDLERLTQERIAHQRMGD
T1 sequence (Q9H9B1 2-1298 limits assumed): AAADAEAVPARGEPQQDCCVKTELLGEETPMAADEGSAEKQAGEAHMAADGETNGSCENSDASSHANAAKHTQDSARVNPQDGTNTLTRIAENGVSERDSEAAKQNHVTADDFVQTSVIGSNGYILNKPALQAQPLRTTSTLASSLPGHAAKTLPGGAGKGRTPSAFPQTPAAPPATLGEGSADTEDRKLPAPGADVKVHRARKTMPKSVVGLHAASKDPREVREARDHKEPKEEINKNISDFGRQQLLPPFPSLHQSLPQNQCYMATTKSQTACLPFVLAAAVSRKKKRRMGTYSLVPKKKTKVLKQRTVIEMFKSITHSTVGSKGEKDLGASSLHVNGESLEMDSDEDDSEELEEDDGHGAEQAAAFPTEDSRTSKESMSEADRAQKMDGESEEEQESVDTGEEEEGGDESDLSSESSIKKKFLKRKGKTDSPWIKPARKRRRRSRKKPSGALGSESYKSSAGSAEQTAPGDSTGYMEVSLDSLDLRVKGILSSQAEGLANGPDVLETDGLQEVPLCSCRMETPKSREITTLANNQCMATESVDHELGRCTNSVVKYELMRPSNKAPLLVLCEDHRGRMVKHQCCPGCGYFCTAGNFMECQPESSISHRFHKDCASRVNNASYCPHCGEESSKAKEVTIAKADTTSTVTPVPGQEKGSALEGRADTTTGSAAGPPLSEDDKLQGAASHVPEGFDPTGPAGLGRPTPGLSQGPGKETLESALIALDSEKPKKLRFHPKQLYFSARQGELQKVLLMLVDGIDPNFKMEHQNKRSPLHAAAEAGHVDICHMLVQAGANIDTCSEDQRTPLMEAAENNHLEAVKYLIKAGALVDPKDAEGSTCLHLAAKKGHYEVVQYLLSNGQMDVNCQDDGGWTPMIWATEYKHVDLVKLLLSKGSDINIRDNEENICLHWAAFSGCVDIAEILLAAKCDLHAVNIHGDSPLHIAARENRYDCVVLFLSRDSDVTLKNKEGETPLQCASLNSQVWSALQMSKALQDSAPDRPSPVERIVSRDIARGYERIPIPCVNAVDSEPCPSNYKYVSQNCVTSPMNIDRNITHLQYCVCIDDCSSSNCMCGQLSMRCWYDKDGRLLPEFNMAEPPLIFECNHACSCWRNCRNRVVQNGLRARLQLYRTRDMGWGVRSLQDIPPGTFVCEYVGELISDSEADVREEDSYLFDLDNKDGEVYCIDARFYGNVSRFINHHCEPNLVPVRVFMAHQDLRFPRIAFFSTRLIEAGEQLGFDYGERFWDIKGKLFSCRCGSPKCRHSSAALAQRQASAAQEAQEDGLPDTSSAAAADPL

[2] = target: T1, von Hippel-Lindau disease tumor suppressor/Histone-lysine N-methyltransferase EHMT1; experiment: PROTAC activity at GLP/VHL in human 22Rv1 cells assessed as induction of GLP degradation at 0.3 uM incubated for 24 hrs by Western blot analysis relative to control; type: cell-based
[3] = target: T2, von Hippel-Lindau disease tumor suppressor/Histone-lysine N-methyltransferase EHMT2 (Homo sapiens, UniProt Q96KQ7+P40337); experiment: PROTAC activity at G9a/VHL in human 22Rv1 cells assessed as induction of G9a degradation at 3 uM incubated for 24 hrs by Western blot analysis relative to control; type: cell-based
T2 sequence (P40337 whole entry partner): as the sequence (P40337 whole entry partner) above
T2 sequence (Q96KQ7 2-1210 limits assumed): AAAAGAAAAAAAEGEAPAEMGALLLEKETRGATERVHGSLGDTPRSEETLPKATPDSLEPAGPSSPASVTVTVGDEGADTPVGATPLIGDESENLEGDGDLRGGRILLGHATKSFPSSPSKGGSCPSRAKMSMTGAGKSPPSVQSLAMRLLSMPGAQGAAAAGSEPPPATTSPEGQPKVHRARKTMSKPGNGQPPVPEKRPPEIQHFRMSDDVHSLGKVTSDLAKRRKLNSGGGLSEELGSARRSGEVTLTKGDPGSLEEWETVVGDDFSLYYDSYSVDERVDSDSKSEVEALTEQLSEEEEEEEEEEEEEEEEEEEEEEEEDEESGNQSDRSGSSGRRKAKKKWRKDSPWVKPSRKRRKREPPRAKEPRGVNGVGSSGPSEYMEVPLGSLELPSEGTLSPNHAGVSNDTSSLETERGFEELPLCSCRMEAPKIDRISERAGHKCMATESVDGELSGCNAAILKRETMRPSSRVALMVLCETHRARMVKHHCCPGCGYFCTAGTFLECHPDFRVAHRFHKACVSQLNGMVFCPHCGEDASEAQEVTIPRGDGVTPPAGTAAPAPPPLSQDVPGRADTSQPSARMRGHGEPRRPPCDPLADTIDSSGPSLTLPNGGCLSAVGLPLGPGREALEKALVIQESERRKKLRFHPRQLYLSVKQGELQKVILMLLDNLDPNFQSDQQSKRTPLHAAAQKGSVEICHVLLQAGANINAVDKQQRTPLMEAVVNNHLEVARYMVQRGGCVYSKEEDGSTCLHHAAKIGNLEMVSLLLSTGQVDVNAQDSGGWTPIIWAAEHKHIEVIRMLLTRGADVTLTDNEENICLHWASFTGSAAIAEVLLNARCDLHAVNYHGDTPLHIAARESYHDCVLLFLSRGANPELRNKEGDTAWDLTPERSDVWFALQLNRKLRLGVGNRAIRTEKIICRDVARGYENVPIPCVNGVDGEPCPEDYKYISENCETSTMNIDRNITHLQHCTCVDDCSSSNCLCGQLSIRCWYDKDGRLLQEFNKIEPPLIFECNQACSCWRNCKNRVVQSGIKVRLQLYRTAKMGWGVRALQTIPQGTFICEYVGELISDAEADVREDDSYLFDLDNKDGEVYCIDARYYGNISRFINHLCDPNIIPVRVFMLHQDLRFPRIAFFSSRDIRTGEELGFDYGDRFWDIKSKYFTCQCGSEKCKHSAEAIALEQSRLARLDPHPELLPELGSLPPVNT

[4] = target: T2, von Hippel-Lindau disease tumor suppressor/Histone-lysine N-methyltransferase EHMT2; experiment: PROTAC activity at G9a/VHL in human 22Rv1 cells assessed as induction of G9a degradation at 0.3 uM incubated for 24 hrs by Western blot analysis relative to control; type: cell-based
[5] = target: T1, von Hippel-Lindau disease tumor suppressor/Histone-lysine N-methyltransferase EHMT1; experiment: PROTAC activity at GLP/VHL in human 22Rv1 cells assessed as effect on VHL level at 3 uM incubated for 24 hrs by RT-qPCR analysis; type: cell-based
NCI-H1299 = experiment: Cytotoxicity against human NCI-H1299 cells assessed as growth inhibition incubated for 8 days; type: functional; conditions: NCI-H1299, 192 h, time 8 day
K562 [6] = experiment: Cytotoxicity against human K562 cells assessed as growth inhibition incubated for 7 days; type: functional; conditions: time 7.0 day
K562 [7] = experiment: Cytotoxicity against human K562 cells assessed as reduction in cell viability incubated for 8 days; type: functional, cell-based; conditions: K562, 192 h
[8] = target: T1, von Hippel-Lindau disease tumor suppressor/Histone-lysine N-methyltransferase EHMT1; experiment: PROTAC activity at GLP/VHL in human 22Rv1 cells assessed as induction of GLP degradation at 1 uM incubated for 24 hrs by Western blot analysis; type: cell-based
CWR22R = experiment: Cytotoxicity against human 22Rv1 cells assessed as growth inhibition measured for 7 days; type: functional; conditions: 22Rv1, 168 h, time 7 day
[9] = target: T1, von Hippel-Lindau disease tumor suppressor/Histone-lysine N-methyltransferase EHMT1; experiment: PROTAC activity at GLP/VHL in human 22Rv1 cells assessed as effect on GLP level upto 3 uM measured for 24 hrs by Western blot analysis; type: cell-based
[10] = target: T2, von Hippel-Lindau disease tumor suppressor/Histone-lysine N-methyltransferase EHMT2; experiment: PROTAC activity at G9a/VHL in human 22Rv1 cells assessed as effect on G9a level upto 3 uM measured for 24 hrs by Western blot analysis; type: cell-based

SMILES: COc1cc2c(NC3CCN(CCCC(=O)NCCCCC(=O)N[C@H](C(=O)N4C[C@H](O)C[C@H]4C(=O)NCc4ccc(-c5scnc5C)cc4)C(C)(C)C)CC3)nc(N3CCC(F)(F)CC3)nc2cc1OCCCN1CCCC1
- Emax [1]: < 11%
- Emax [2]: < 9%
- Emax [3]: < 11%

SMILES: COc1cc2c(NC3CCN(CCCC(=O)NCCCCCCCCCC(=O)N[C@H](C(=O)N4C[C@H](O)C[C@H]4C(=O)NCc4ccc(-c5scnc5C)cc4)C(C)(C)C)CC3)nc(N3CCC(F)(F)CC3)nc2cc1OCCCN1CCCC1
- Emax [1]: < 96%
- Emax [2]: 84%
- Emax [3]: < 92%
- Emax [4]: 67%

SMILES: COc1cc2c(NC3CCN(CCCC(=O)NCCCCCC(=O)N[C@H](C(=O)N4C[C@H](O)C[C@H]4C(=O)NCc4ccc(-c5scnc5C)cc4)C(C)(C)C)CC3)nc(N3CCC(F)(F)CC3)nc2cc1OCCCN1CCCC1
- Emax [1]: < 19%
- Emax [2]: < 5%
- Emax [3]: < 30%

SMILES: COc1cc2c(NC3CCN(C(C)C)CC3)nc(N3CCC(F)(F)CC3)nc2cc1OCCCN1CCCC1
- Activity [5]: Active
- GI50 (NCI-H1299): > 10 µM
- Activity (K562 [6]): inactive
- IC50 (K562 [7]): > 10 µM
- Activity [8]: inactive
- GI50 (CWR22R): > 10 µM

SMILES: COc1cc2c(NC3CCN(CCCC(=O)NCCCCCCCCCCCC(=O)N[C@H](C(=O)N4C[C@@H](O)C[C@@H]4C(=O)NCc4ccc(-c5scnc5C)cc4)C(C)(C)C)CC3)nc(N3CCC(F)(F)CC3)nc2cc1OCCCN1CCCC1
- Activity [9]: inactive
- Activity [10]: inactive

SMILES: COc1cc2c(NC3CCN(CCCC(=O)NCCOCCOCCOCCC(=O)N[C@H](C(=O)N4C[C@H](O)C[C@H]4C(=O)NCc4ccc(-c5scnc5C)cc4)C(C)(C)C)CC3)nc(N3CCC(F)(F)CC3)nc2cc1OCCCN1CCCC1
- Emax [1]: < 27%
- Emax [2]: < 16%

SMILES: COc1cc2c(NC3CCN(CCCC(=O)NCCOCCC(=O)N[C@H](C(=O)N4C[C@H](O)C[C@H]4C(=O)NCc4ccc(-c5scnc5C)cc4)C(C)(C)C)CC3)nc(N3CCC(F)(F)CC3)nc2cc1OCCCN1CCCC1
- Emax [1]: 88%
- Emax [2]: < 10%

SMILES: COc1cc2c(NN3CCN(CCCC(=O)NCCCCCCCCC(=O)N[C@H](C(=O)N4C[C@H](O)C[C@H]4C(=O)NCc4ccc(-c5scnc5C)cc4)C(C)(C)C)CC3)nc(N3CCC(F)(F)CC3)nc2cc1OCCCN1CCCC1
- Emax [1]: 86%
- Emax [2]: < 27%
- Emax [3]: 87%

SMILES: COc1cc2c(NC3CCN(CCCC(=O)NCCC(=O)N[C@H](C(=O)N4C[C@H](O)C[C@H]4C(=O)NCc4ccc(-c5scnc5C)cc4)C(C)(C)C)CC3)nc(N3CCC(F)(F)CC3)nc2cc1OCCCN1CCCC1
- Emax [1]: 70%
- Emax [2]: 54%
- Emax [3]: 61%
- Emax [4]: 66%

SMILES: COc1cc2c(NC3CCN(CCCC(=O)NCCCCCCC(=O)N[C@H](C(=O)N4C[C@H](O)C[C@H]4C(=O)NCc4ccc(-c5scnc5C)cc4)C(C)(C)C)CC3)nc(N3CCC(F)(F)CC3)nc2cc1OCCCN1CCCC1
- Emax [1]: < 20%
- Emax [2]: < 7%
- Emax [3]: < 30%
- Emax [4]: < 10%

SMILES: COc1cc2c(NC3CCN(CCCC(=O)NCCCCCCCC(=O)N[C@H](C(=O)N4C[C@H](O)C[C@H]4C(=O)NCc4ccc(-c5scnc5C)cc4)C(C)(C)C)CC3)nc(N3CCC(F)(F)CC3)nc2cc1OCCCN1CCCC1
- Emax [1]: 68%
- Emax [2]: < 28%
- Emax [3]: 75%

SMILES: COc1cc2c(NC3CCN(CCCC(=O)NCCCCCCCCCCC(=O)N[C@H](C(=O)N4C[C@H](O)C[C@H]4C(=O)NCc4ccc(-c5scnc5C)cc4)C(C)(C)C)CC3)nc(N3CCC(F)(F)CC3)nc2cc1OCCCN1CCCC1
- Emax [1]: < 94%
- Emax [2]: 69%
- Emax [3]: < 92%
- Emax [4]: 79%

SMILES: COc1cc2c(NC3CCN(CCCC(=O)NCCOCCOCCC(=O)N[C@H](C(=O)N4C[C@H](O)C[C@H]4C(=O)NCc4ccc(-c5scnc5C)cc4)C(C)(C)C)CC3)nc(N3CCC(F)(F)CC3)nc2cc1OCCCN1CCCC1
- Emax [1]: 21%
- Emax [2]: < 7%
- Emax [3]: < 13%

SMILES: COc1cc2c(NC3CCN(CCCC(=O)NCCCC(=O)N[C@H](C(=O)N4C[C@H](O)C[C@H]4C(=O)NCc4ccc(-c5scnc5C)cc4)C(C)(C)C)CC3)nc(N3CCC(F)(F)CC3)nc2cc1OCCCN1CCCC1
- Emax [1]: 21%
- Emax [2]: < 3%
- Emax [4]: < 8%
